Measured values published in publication PMC12305494, “Discovery of PXR Antagonist MI891 and PXR Degrader MI1013 and Their Roles in Hepatic Gene Regulation” (Journal of Medicinal Chemistry, 2025).

Tests used:
[1] = target: T1, vitamin D receptor (VDR) (Homo sapiens, UniProt P11473); assay: VDR luciferase reporter assay, agonistic and antagonistic setups; type: cell-based; conditions: prototype ligand calcitriol
T1 construct: expressed in transfected cells
Description: (§1) For the farnesoid X receptor (FXR) luciferase gene reporter assay, the full-length expression vector was paired with pFXRE-luc luciferase construct. The p1A1-luc construct was used in the aryl hydrocarbon receptor (AhR) assays with pRL-TK for normalization. Gal4-LXR-α/β, and Gal4-PPAR-γ constructs were used with the pGAL4 UAS-luc construct. For the VDR assay, expression vector pSG5-hVDR together with pVDRE-luc constructs was used. Firefly and Renilla luciferase activities were analyzed using a Dual reporter assay (Promega). For the nuclear receptor assays, prototype ligands were used at the following concentrations: Calcitriol for VDR (100 nM), GW3965 for LXRα and LXRβ (10 μM), 6-OCA for FXR (1 μM), fenofibrate for PPARα (10 μM), estradiol for ERα and β (10 μM), rosiglitazone for PPARγ (10 μM), 3-MC for AhR (5 μM), and TCPOBOP for mCAR (10 μM). Detailed descriptions and protocols are detailed in our recent publication. ,

[2] = target: T2, PXR-eGFP (Homo sapiens, UniProt O75469); assay: Microscale thermophoresis (MST); type: binding; conditions: COS-1 cell lysate expressing PXR-eGFP
T2 construct: expressed in transfected cells; host or cells: COS-1 (lysate used)
Description: Microscale Thermophoresis (MST) experiments were conducted using the Monolith NT.115 (201810-BR-N006) (Blue/Red) instrument from NanoTemper Technologies GmbH, Germany. Cell lysates from COS-1 cells expressing PXR-eGFP served as the source of fluorescently labeled PXR, allowing the study of proteins in near-native conditions. COS-1 cells were transfected with 1000 ng of GFP-fused PXR (PXR-eGFP) using Lipofectamine 3000 and lysed 48 h post-transfection with RIPA buffer. To assess MI891 binding to PXR, cell lysates were diluted 2x with MST buffer (10 mM Na-phosphate buffer, pH 7.4, 1 mM MgCl2, 3 mM KCl, 150 mM NaCl, 0.05% Tween-20) to achieve optimal fluorescence levels. A titration series of MI891 (0–30 μM) was incubated with the diluted cell lysates. Measurements were taken in premium-coated capillaries (NanoTemper Technologies GmbH, MO-K025) using an LED source (Blue LED: Ex: 470(±10)/Em: 520(±10) nm) with an excitation wavelength of 470 nm and a 50% maximum stimulation time (MST). The excitation power was […]. Binding affinity was evaluated using the Hill model, with each data point representing mean fraction bound values from three independent experiments. The bound fraction of PXR-eGFP was determined, and fitting was performed using the Hill model method in MO Affinity Analysis v2.3 software (NanoTemper Technologies). […]

[3] = target: AhR (Homo sapiens, UniProt P35869); assay: AhR agonist reporter assay; type: cell-based; conditions: 10 µM MI891
Description: as §1, with “publication. , […]” for “publication. ,”
hydrophobic interactions. (F) Superimposed diagram of PXR bound with agonist (SJPYT-328) and antagonists (MI891 and SJPYT-331) to differentiate the agonist and antagonist interactions with helix 12 (H12). The interaction of the agonist with PXR residue (L428) is circled. (G) Extended nuclear receptor selectivity profile. […]

[4] = test system: RXRα; assay: Western blot of RXRα in HepaRG cells; type: cell-based, human; conditions: 24 h
Description: The harvested HepaRG cells were lysed in RIPA lysis buffer (Cat. no 89900, Thermo Scientific) containing Halt protease inhibitor cocktail inhibitors (Thermo Scientific). Protein concentration was measured using the Pierce BCA Protein Assay Kit (Cat. no. 23225, Thermo Scientific), samples were diluted in 4 × Laemmli sample buffer (Cat. no. 1610747, BioRad) supplemented with mercaptoethanol and heated at 95 °C for 5 min. Equal amounts of protein were loaded in 4–20% Mini-PROTEAN TGX Stain-Free Protein Gels (12 well. cat. no. 4561095 or 15 well, cat. no. 4568096, Bio-Rad), electrophorised, and transferred onto Trans-Blot Turbo Midi-size PVDF Membrane (cat. no. 1704273, Bio-Rad), and blocked with EveryBlot Blocking buffer for 10 min (cat. no. 12010020, Bio-Rad). […] Chemiluminescence signals were detected using SuperSignal West Femto Maximum Sensitivity Substrate (cat. no. 34096, Thermo Scientific) and visualized by the ChemiDoc MP Imaging system (Universal Hood III, #731BR02821, Bio-Rad), and the bands were quantified using β-actin (1:2000, recombinant rabbit conjugated monoclonal antibody (JF53-10), cat. no. MA5-32540, Invitrogen) as loading control with ImageJ (version 1.54g) software.

T2 sequence (O75469 whole entry): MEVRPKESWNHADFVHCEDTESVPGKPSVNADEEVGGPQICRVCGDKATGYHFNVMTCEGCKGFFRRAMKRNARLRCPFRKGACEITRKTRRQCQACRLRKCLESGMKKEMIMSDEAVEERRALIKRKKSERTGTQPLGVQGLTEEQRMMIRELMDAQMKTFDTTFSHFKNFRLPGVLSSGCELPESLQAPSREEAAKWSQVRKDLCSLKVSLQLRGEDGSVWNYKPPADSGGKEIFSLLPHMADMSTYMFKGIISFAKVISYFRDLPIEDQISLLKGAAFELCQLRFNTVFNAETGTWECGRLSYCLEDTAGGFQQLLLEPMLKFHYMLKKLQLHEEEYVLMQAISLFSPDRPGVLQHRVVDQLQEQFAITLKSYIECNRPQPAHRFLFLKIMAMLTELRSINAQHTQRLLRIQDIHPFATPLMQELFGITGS
Sequence of AhR (P35869 11-848, species assumed): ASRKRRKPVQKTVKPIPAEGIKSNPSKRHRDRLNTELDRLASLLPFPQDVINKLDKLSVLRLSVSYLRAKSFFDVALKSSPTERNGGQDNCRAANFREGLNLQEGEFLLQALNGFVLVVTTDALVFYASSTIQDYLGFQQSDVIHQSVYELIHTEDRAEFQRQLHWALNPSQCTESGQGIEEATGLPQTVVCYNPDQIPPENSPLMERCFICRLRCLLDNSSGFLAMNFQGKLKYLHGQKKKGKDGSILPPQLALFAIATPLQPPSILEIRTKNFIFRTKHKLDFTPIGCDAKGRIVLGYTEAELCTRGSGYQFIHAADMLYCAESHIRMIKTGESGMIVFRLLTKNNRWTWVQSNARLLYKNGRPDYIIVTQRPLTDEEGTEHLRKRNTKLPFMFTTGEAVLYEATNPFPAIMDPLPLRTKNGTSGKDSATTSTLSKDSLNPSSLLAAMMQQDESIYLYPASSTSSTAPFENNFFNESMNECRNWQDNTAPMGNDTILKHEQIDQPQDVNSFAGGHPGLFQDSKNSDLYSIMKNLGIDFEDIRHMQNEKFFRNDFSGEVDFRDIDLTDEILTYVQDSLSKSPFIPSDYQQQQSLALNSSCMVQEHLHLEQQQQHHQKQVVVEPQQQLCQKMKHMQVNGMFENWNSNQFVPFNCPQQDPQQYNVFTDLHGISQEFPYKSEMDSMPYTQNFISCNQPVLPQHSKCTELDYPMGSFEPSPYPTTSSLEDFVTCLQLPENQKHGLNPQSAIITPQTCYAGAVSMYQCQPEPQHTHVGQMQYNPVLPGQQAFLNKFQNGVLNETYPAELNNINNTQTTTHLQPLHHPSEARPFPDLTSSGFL
T1 sequence (P11473 whole entry): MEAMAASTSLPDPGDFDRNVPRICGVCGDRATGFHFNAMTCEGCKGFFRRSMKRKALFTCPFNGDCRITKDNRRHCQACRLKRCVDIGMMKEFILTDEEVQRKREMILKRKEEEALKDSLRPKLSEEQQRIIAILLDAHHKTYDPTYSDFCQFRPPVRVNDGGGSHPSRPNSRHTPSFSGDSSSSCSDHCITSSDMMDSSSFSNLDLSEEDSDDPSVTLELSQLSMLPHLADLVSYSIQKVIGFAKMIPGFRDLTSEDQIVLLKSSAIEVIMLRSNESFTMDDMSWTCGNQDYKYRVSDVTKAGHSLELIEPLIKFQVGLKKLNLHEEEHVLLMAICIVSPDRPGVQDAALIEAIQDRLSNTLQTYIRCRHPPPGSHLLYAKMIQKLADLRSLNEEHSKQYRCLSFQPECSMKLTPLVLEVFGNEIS

Kd [2] | agonistic effect on AhR [3] | Compound | agonistic or antagonistic activity on VDR [1] | RXRα degradation [4]
1700 nM | no agonistic effects | NC(=O)c1cc(Cn2cc(-c3c(-c4ccc(Cl)cc4)nc4c(F)cc(F)cn34)nn2)ccc1Cl [Compound 11, 2-Chloro-5-((4-(2-(4-chlorophenyl)-6,8-difluoroimidazo[1,2-a]pyridin-3-yl)-1H-1,2,3-triazol-1-yl)methyl)-benzamide] | no significant agonistic or antagonistic activities | 
 |  | N-(4-((1-(2,5-dimethoxyphenyl)-5-methyl-1H-1,2,3-triazol-4-yl)sulfonyl)phenyl)-3-(2-(2-(2-(4-(((2-(2,6-dioxopiperidin-3-yl)-1,3-dioxoisoindolin-4-yl)amino)methyl)-1H-1,2,3-triazol-1-yl)ethoxy)ethoxy)ethoxy)propenamide [Compound 36] |  | does not degrade
